The results in this text go back to PMC11102520, “Design, synthesis, molecular docking study, and α-glucosidase inhibitory evaluation of novel hydrazide–hydrazone derivatives of 3,4-dihydroxyphenylacetic acid” (Scientific Reports, 2024).

Structures are written as SMILES.

The term melting point denotes the temperature, or range, at which the solid turns liquid. As a reminder, the inhibition is the share of the control response that was lost under treatment.

One data set has as its target α-glucosidase (Saccharomyces cerevisiae, UniProt P53341). The data set can be described thus: In vitro α-glucosidase inhibition assay (p-nitrophenyl glucopyranoside substrate). In kind it is biochemical. To be noted: for inhibition at 500 µM: test compound 0.5mM, read-out: Percent Inhibition (0.5mM). Here is the method:
The reaction was initiated by the addition of 10 μL of 0.5mM substrate(p-nitrophenyl glucopyranoside, Sigma Inc.). […] All experiments were carried out in triplicates (mean ± SEM, n=3).

α-glucosidase, sequence (P53341 whole entry): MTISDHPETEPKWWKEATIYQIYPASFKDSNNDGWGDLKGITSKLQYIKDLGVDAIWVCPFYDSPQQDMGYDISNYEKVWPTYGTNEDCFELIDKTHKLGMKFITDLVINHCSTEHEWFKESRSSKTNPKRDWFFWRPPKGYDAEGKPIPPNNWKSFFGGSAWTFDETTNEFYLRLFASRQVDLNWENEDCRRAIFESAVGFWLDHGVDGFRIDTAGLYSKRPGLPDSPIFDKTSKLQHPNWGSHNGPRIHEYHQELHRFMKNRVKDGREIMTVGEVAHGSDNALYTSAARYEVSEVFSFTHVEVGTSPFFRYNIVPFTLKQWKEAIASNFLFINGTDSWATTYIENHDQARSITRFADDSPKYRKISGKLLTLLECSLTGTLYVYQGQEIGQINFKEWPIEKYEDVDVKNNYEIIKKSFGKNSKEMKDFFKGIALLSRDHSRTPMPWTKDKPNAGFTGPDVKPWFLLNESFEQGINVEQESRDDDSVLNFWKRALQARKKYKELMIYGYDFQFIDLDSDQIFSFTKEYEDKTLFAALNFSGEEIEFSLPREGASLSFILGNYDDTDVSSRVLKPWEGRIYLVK

Take `O=Cc1ccc(C=NNC(=O)Cc2ccc(O)c(O)c2)cc1` [Compound 26, 2-(3,4-dihydroxyphenyl)-N'-(4-formylbenzylidene)acetohydrazide]: the melting point came to 204 °C.

In the case of `O=C(Cc1ccc(O)c(O)c1)NN=Cc1ccc(O)c(O)c1O` [Compound 5, 2-(3,4-dihydroxyphenyl)-N'-(2,3,4-trihydroxybenzylidene)acetohydrazide], the melting point was 212 °C. On α-glucosidase, the inhibition at 500 µM came to 96.1%.

In turn, `O=C(Cc1ccc(O)c(O)c1)NN=Cc1ccc(O)c(O)c1` [Compound 3, N'-(3,4-dihydroxybenzylidene)-2-(3,4-dihydroxyphenyl)acetohydrazide] showed a melting point of 212 °C. Besides, the inhibition at 500 µM on α-glucosidase amounted to 91.3%.

Consider `CSc1ccc(C=NNC(=O)Cc2ccc(O)c(O)c2)cc1` [Compound 28, 2-(3,4-dihydroxyphenyl)-N'-(4-(methylthio)benzylidene)acetohydrazide], for which the melting point is 198 °C.

`O=C(Cc1ccc(O)c(O)c1)NN=Cc1ccccc1O` [Compound 1, (3,4-dihydroxyphenyl)-N'-(2-hydroxybenzylidene)acetohydrazide] yielded a melting point of 164 °C. Further, the inhibition at 500 µM at α-glucosidase came out at 86.3%.

As to `COc1ccc(C=NNC(=O)Cc2ccc(O)c(O)c2)c(O)c1` [Compound 8, 2-(3,4-dihydroxyphenyl)-N'-(2-hydroxy-4-methoxybenzylidene)acetohydrazide], the melting point turned out to be 206 °C. For the same compound, the inhibition at 500 µM on α-glucosidase came out at 91%.

Turning to `COc1cc(C=NNC(=O)Cc2ccc(O)c(O)c2)ccc1O` [Compound 6, 2-(3,4-dihydroxyphenyl)-N'-(4-hydroxy-3-methoxybenzylidene)acetohydrazide], the melting point amounted to 189 °C. On α-glucosidase, the inhibition at 500 µM turned out to be 86.4%.

Consider `CCOc1ccc(C=NNC(=O)Cc2ccc(O)c(O)c2)c(O)c1` [Compound 10, 2-(3,4-dihydroxyphenyl)-N'-(4-ethoxy-2-hydroxybenzylidene)acetohydrazide], for which the melting point was 164 °C. Further, on α-glucosidase, the inhibition at 500 µM stood at 81.9%.

As to `COc1cccc(C=NNC(=O)Cc2ccc(O)c(O)c2)c1O` [Compound 7, 2-(3,4-dihydroxyphenyl)-N'-(2-hydroxy-3-methoxybenzylidene)acetohydrazide], the melting point came to 204 °C. Moreover, the inhibition at 500 µM on α-glucosidase was 91.7%.

On to `O=C(Cc1ccc(O)c(O)c1)NN=Cc1ccc(O)cc1` [Compound 2, 2-(3,4-dihydroxyphenyl)-N'-(4-hydroxybenzylidene)acetohydrazide], for which the melting point was found to be 210 °C. Moreover, the inhibition at 500 µM at α-glucosidase was 90.4%.

For the compound `O=C(Cc1ccc(O)c(O)c1)NN=Cc1ccc([N+](=O)[O-])cc1` [Compound 23, 2-(3,4-dihydroxyphenyl)-N'-(4-nitrobenzylidene)acetohydrazide], the melting point was found to be 201 °C. Further, the inhibition at 500 µM at α-glucosidase is 80.9%.

As to `COc1ccccc1C=NNC(=O)Cc1ccc(O)c(O)c1` [Compound 12, 2-(3,4-dihydroxyphenyl)-N'-(2-methoxybenzylidene)acetohydrazide], the melting point lay in the range of 190 to 193 °C. Moreover, the inhibition at 500 µM on α-glucosidase came to 96.7%.

With `O=C(Cc1ccc(O)c(O)c1)NN=Cc1ccc(Cl)cc1` [Compound 19, N'-(4-chlorobenzylidene)-2-(3,4-dihydroxyphenyl)acetohydrazide], the melting point worked out at 198 °C. For the same compound, the inhibition at 500 µM at α-glucosidase stood at 79.4%.

The compound `O=C(Cc1ccc(O)c(O)c1)NN=Cc1cccc([N+](=O)[O-])c1` [Compound 25, 2-(3,4-dihydroxyphenyl)-N'-(3-nitrobenzylidene)acetohydrazide] yielded a melting point of 206 °C. In addition, the inhibition at 500 µM at α-glucosidase worked out at 78.2%.

`O=C(Cc1ccc(O)c(O)c1)NN=Cc1cccc(Cl)c1` [Compound 20, N'-(3-chlorobenzylidene)-2-(3,4-dihydroxyphenyl)acetohydrazide] registered a melting point of 196 °C. Moreover, the inhibition at 500 µM on α-glucosidase was determined as 84.4%.

For `O=C(Cc1ccc(O)c(O)c1)NN=Cc1ccccc1[N+](=O)[O-]` [Compound 24, 2-(3,4-dihydroxyphenyl)-N'-(2-nitrobenzylidene)acetohydrazide], the melting point amounted to 204 °C. At α-glucosidase, the inhibition at 500 µM was found to be 82.7%.

In turn, `COc1ccc(C=NNC(=O)Cc2ccc(O)c(O)c2)cc1` [Compound 13, 2-(3,4-dihydroxyphenyl)-N'-(4-methoxybenzylidene)acetohydrazide] had a melting point of 198 °C. Further, on α-glucosidase, the inhibition at 500 µM came to 95.2%.

`COc1ccc(C=NNC(=O)Cc2ccc(O)c(O)c2)cc1OC` [Compound 14, 2-(3,4-dihydroxyphenyl)-N'-(3,4-dimethoxybenzylidene)acetohydrazide] returned a melting point of 210 °C. For the same compound, the inhibition at 500 µM on α-glucosidase was 92.2%.

For the compound `O=C(Cc1ccc(O)c(O)c1)NN=Cc1ccco1` [Compound 27, 2-(3,4-dihydroxyphenyl)-N'-(furan-2-ylmethylene)acetohydrazide], the melting point is 156 °C.

Turning to `CCOc1cc(C=NNC(=O)Cc2ccc(O)c(O)c2)ccc1O` [Compound 9, 2-(3,4-dihydroxyphenyl)-N'-(3-ethoxy-4-hydroxybenzylidene)acetohydrazide], the melting point amounted to 184 °C. Further, the inhibition at 500 µM on α-glucosidase came out at 83.3%.

`CN(C)c1ccc(C=NNC(=O)Cc2ccc(O)c(O)c2)cc1` [Compound 15, (3,4-dihydroxyphenyl)-N'-(4-(dimethylamino)benzylidene)acetohydrazide]: the melting point was 203 °C. For the same compound, the inhibition at 500 µM at α-glucosidase came to 92.8%.

In the case of `Cc1ccc(C=NNC(=O)Cc2ccc(O)c(O)c2)cc1` [Compound 16, 2-(3,4-dihydroxyphenyl)-N'-(4-methylbenzylidene)acetohydrazide], the melting point was found to be 201 °C. In addition, the inhibition at 500 µM on α-glucosidase was 84.1%.

For `O=C(Cc1ccc(O)c(O)c1)NN=Cc1ccc(O)cc1O` [Compound 4, N'-(2,4-dihydroxybenzylidene)-2-(3,4-dihydroxyphenyl)acetohydrazide], the melting point worked out at 198 °C. Besides, the inhibition at 500 µM at α-glucosidase came out at 95.7%.

Compound `Cc1ccc(C=NNC(=O)Cc2ccc(O)c(O)c2)cc1O` [Compound 11, 2-(3,4-dihydroxyphenyl)-N'-(3-hydroxy-4-methylbenzylidene)acetohydrazide] showed a melting point of 210 °C. Further, at α-glucosidase, the inhibition at 500 µM is 77.5%.

In turn, `O=C(Cc1ccc(O)c(O)c1)NN=Cc1cccc2ccccc12` [Compound 17, 2-(3,4-dihydroxyphenyl)-N'-(naphthalen-1-ylmethylene)acetohydrazide] came in with a melting point of 210 °C. Also, the inhibition at 500 µM at α-glucosidase came out at 72%.

The compound `O=C(Cc1ccc(O)c(O)c1)NN=Cc1c(Cl)cccc1Cl` [Compound 22, N'-(2,6-dichlorobenzylidene)-2-(3,4-dihydroxyphenyl)acetohydrazide] had a melting point of 262 °C. In addition, the “α-glucosidase inhibitory activity (in words)” value at α-glucosidase is on record as “no inhibitory activity”.

`O=C(Cc1ccc(O)c(O)c1)NN=Cc1ccccc1Cl` [Compound 18, N'-(2-chlorobenzylidene)-2-(3,4-dihydroxyphenyl)acetohydrazide] returned a melting point of 164 °C. Further, the inhibition at 500 µM at α-glucosidase amounted to 85.3%.
